Measured values taken from patent US9802945B2, “Imidazopyridazine derivatives as modulators of the GABAA receptor activity” (Pfizer Limited, priority 2014, dated 2017).
pKi: −log10 of the molar value. Where a name gives a salt, the structure may show the parent alone. Read-outs that look alike come from different tables or passages of the source.

Experiments:
[1] = molecular target: GABA channels expressing the α1 subunit (GABRA1-GABRB3-GABRG2) in HEK cells (Homo sapiens (Human), UniProt P14867+P18507); assay: QPatch whole-cell patch-clamp electrophysiology, enhancement of GABA current (α1); format: cell-based; conditions: −60 mV, approximately EC10 GABA
Sequence of GABA channels expressing the α1 subunit (GABRA1-GABRB3-GABRG2) in HEK cells (P14867 28-456): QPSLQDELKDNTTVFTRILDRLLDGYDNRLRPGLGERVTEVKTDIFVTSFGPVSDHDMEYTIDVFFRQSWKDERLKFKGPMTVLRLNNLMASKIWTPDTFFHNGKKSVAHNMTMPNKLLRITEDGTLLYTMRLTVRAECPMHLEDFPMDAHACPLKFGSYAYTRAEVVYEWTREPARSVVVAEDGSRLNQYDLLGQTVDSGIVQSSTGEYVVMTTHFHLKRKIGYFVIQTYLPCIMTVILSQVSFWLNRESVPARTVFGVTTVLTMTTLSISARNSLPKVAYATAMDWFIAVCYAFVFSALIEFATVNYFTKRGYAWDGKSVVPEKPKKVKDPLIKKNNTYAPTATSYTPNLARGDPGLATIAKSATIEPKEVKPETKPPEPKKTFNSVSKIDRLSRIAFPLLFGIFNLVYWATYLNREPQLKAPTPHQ
Sequence of GABA channels expressing the α1 subunit (GABRA1-GABRB3-GABRG2) in HEK cells (P28472 26-473 partner): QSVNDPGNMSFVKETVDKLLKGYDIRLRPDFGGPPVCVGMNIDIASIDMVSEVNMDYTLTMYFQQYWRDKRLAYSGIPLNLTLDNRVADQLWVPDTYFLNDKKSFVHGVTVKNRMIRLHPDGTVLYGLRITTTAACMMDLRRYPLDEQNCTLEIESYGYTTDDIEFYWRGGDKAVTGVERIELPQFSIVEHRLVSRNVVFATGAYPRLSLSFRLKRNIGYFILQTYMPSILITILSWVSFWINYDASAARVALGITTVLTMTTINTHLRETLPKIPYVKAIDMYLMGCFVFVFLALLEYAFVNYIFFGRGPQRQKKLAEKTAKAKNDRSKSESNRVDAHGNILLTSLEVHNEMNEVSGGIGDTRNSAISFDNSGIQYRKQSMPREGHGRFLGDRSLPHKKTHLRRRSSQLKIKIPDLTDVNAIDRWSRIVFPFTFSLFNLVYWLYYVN
Sequence of GABA channels expressing the α1 subunit (GABRA1-GABRB3-GABRG2) in HEK cells (P18507 40-475): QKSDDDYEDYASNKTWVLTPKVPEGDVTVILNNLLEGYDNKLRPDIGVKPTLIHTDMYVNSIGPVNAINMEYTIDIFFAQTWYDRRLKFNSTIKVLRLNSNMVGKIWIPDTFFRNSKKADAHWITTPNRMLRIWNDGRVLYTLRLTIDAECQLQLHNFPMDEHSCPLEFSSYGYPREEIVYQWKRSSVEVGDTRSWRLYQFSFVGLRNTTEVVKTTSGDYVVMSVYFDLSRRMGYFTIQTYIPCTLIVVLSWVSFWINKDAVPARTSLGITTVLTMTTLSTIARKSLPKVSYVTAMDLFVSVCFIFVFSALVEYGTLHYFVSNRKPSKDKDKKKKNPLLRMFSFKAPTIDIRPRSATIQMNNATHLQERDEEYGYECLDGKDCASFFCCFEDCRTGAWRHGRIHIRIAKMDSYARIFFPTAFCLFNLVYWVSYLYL
Procedure: (§1) Cell suspension containing HEK cells expressing GABRA2-GABRB2-GABRG2 was placed on the QPatch instrument in serum-free medium into the instrument's cell stirrer. […] All recordings were made at room temperature (22-24° C.).
(§2) Current records were acquired at 1 KHz and filtered at 0.3 KHz using the Bessel filter. Series resistance compensation was set to 80% in the QPatch software.
(§3) All compounds were dissolved in dimethyl sulfoxide to make 30 mM or 10 mM stock solutions, which were then diluted to 1000 times the desired final concentration in dimethyl sulfoxide. These were diluted into extracellular solution to attain the final concentrations desired. […] This concentration of dimethyl sulfoxide was present in all samples.
(§4) Currents were recorded at −60 mV, using an approximately EC10 concentration of gamma-aminobutyric acid (GABA).
(§5) Compound effect (% enhancement of gamma-aminobutyric acid current) was calculated using the following formula: [((peak modulator current amplitude−leak)−(GABA current amplitude−leak))/(GABA current amplitude−leak)]*100, where ‘leak’ is leak current at −60 mV, ‘peak modulator current amplitude’ is the current elicited by co-application of gamma-aminobutyric acid and test compound, and ‘GABA current amplitude’ is the current elicited by application of gamma-aminobutyric acid alone.
The ability of the compounds of the formula (I) to modulate the GABA channels expressing the α1 subunit (or GABRA1) can also be measured using an assay analogous to that described above but replacing the GABRA2-GABRB2-GABRG2 gene construct with the GABRA1-GABRB3-GABRG2 gene construct. All other conditions remain the same including the same cell line and conditions for cell growth.

[2] = molecular target: human recombinant GABA A receptor containing the alpha2, beta2, and gamma3 subunits (Homo sapiens, UniProt P47869+Q99928); assay: Radioligand competition binding assay with [3H]Ro-15-1788 (Flumazenil)
Procedure: Membranes were prepared from HEK cells expressing hGABA A alpha2beta2-gamma3 receptor, and validated to ascertain protein concentration, receptor expression and to determine the Kd of the flumazenil as well as the Ki of a standard set of compounds before being used to test new compounds.
100 ul of radioligand and 100 ul of membrane in 50 mM Tris-HCl and 0.05% F127 with 1 ul of test compound was incubated for 2 hours to allow the reaction to achieve equilibrium, and then harvested onto filter plates, dried and counted on a TopCount NXT. The data was analysed, and the Ki values were presented as the geometric mean of at least two replicates.

[3] = molecular target: GABRA2-GABRB2-GABRG2 chloride currents in HEK cells (Homo sapiens (Human), UniProt P18507+P47869); assay: QPatch whole-cell patch-clamp electrophysiology, enhancement of GABA current (α2); format: cell-based; conditions: −60 mV, approximately EC10 GABA
Sequence of GABRA2-GABRB2-GABRG2 chloride currents in HEK cells (P47869 29-451): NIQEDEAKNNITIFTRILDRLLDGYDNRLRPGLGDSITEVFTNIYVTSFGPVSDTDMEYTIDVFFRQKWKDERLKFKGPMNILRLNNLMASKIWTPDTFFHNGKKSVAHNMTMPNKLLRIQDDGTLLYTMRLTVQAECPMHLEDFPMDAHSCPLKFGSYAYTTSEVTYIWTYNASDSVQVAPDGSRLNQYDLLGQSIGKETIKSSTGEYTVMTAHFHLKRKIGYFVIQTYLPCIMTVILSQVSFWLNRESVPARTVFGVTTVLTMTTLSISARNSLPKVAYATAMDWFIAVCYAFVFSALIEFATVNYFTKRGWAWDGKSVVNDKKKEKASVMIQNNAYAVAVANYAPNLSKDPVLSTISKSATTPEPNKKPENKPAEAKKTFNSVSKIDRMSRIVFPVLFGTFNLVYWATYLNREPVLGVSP
Sequence of GABRA2-GABRB2-GABRG2 chloride currents in HEK cells (P47870 26-512 partner): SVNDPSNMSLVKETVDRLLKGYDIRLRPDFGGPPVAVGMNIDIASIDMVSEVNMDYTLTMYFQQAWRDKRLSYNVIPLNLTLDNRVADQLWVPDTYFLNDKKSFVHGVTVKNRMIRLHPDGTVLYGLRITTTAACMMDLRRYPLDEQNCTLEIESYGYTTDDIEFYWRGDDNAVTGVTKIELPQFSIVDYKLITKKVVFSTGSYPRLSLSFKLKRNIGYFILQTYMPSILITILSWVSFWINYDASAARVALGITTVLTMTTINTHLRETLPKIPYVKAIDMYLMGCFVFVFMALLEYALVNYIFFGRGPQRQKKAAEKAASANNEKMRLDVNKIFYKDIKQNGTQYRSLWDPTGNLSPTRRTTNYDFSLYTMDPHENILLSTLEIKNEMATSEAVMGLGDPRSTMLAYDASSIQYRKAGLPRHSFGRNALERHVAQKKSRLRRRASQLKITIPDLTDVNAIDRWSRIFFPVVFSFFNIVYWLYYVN
Sequence of GABRA2-GABRB2-GABRG2 chloride currents in HEK cells (P18507 40-475): as the sequence (P18507 40-475) above
Procedure: Human Embryonic Kidney (HEK) cells were transfected with a GABRA2-GABRB2-GABRG2 construct using standard techniques.
For QPatch electrophysiology testing, cells were harvested from flasks by enzymatic dissociation and resuspended in serum-free medium. Cells were typically used for electrophysiological experiments within 24 to 72 hours after splitting.
as §1, §2, §3, §4, §5

[4] = read-out: GABA-α2 Ki, hGABA A alpha2beta2gamma3 membranes from HEK cells, geometric mean of at least two replicates

Structure (SMILES) | α1 PAM (% enhancement of gamma-aminobutyric acid current) [1] | pKi [2, 4] | α2 PAM (% enhancement of gamma-aminobutyric acid current) [3] | pKi [2]
CC(C)n1cnc2c(-c3ccc(F)c(-c4ccc5c(c4)CN(C)C5=O)c3)cnnc21 [Example 2, 5-{2-Fluoro-5-[7-(propan-2-yl)-7H-imidazo[4,5-c]pyridazin-4-yl]phenyl}-2-methyl-2,3-dihydro-1H-isoindol-1-one] | 12% | 8.19 | 106% | 
CCn1cnc2c(-c3ccc(F)c(-c4ccc5c(c4)C(=O)NC5)c3)cnnc21 [Example 6, 6-[5-(7-Ethyl-7H-imidazo[4,5-c]pyridazin-4-yl)-2-fluorophenyl]-2,3-dihydro-1H-isoindol-1-one] | −61% | 7.09 | 10% | 
CCn1cnc2c(-c3ccc(F)c(-c4cc(C(=O)N(C)C)ccc4F)c3)cnnc21 [Example 7, 5′-(7-Ethyl-7H-imidazo[4,5-c]pyridazin-4-yl)-2′,6-difluoro-N,N-dimethylbiphenyl-3-carboxamide] |  | 7.51 | 47% | 
CNC(=O)c1ccc(F)c(-c2cc(-c3cnnc4c3ncn4C3CC3)ccc2F)c1 [Example 8, 5′-(7-Cyclopropyl-7H-imidazo[4,5-c]pyridazin-4-yl)-2′,6-difluoro-N-methyl-biphenyl-3-carboxamide] |  | 7.54 |  | 
CN1Cc2cc(-c3cc(-c4cnnc5c4ncn5C4CC4)ccc3F)ccc2C1=O [Example 10, 5-[5-(7-Cyclopropyl-7H-imidazo[4,5-c]pyridazin-4-yl)-2-fluorophenyl]-2-methyl-2,3-dihydro-1H-isoindol-1-one] | −12% | 7.26 | 36% | 
CNC(=O)c1ccc(-c2cc(-c3cnnc4c3ncn4C3CC3)ccc2F)cc1 [Example 11, 5′-(7-Cyclopropyl-7H-imidazo[4,5-c]pyridazin-4-yl)-2′-fluoro-N-methylbiphenyl-4-carboxamide] |  | 7.69 | 60% | 
CC(C)n1cnc2c(-c3ccc(F)c(-c4ccc(C(N)=O)cc4)c3)cnnc21 [Example 12, 2′-Fluoro-5′-[7-(propan-2-yl)-7H-imidazo[4,5-c]pyridazin-4-yl]biphenyl-4-carboxamide] |  | 7.97 | 48% | 
CCn1cnc2c(-c3ccc(F)c(-c4ccc(C(N)=O)cc4)c3)cnnc21 [Example 14, 5′-(7-Ethyl-7H-imidazo[4,5-c]pyridazin-4-yl)-2′-fluorobiphenyl-4-carboxamide] | −55% | 8.12 | 11% | 
CCn1cnc2c(-c3ccc(F)c(-c4cccc(C(N)=O)c4)c3)cnnc21.O=C(O)C(F)(F)F [Example 15, 5′-(7-Ethyl-7H-imidazo[4,5-c]pyridazin-4-yl)-2′-fluorobiphenyl-3-carboxamide trifluoroacetate salt] | −34% | 7.69 | 40% | 
CCn1cnc2c(-c3ccc(F)c(-c4ccc(C(=O)N(C)C)c(F)c4)c3)cnnc21 [Example 17, 5′-(7-Ethyl-7H-imidazo[4,5-c]pyridazin-4-yl)-2′,3-difluoro-N,N-dimethylbiphenyl-4-carboxamide trifluoroacetate salt] |  | 7.28 |  | 
CCn1cnc2c(-c3ccc(F)c(-c4ccc(C(=O)NC(C)C)cc4)c3)cnnc21 [Example 18, 5′-(7-Ethyl-7H-imidazo[4,5-c]pyridazin-4-yl)-2′-fluoro-N-(propan-2-yl)biphenyl-4-carboxamide trifluoroacetate salt] |  | 7.71 |  | 
CCn1cnc2c(-c3ccc(F)c(-c4cc(F)cc(C(=O)NC)c4)c3)cnnc21.O=C(O)C(F)(F)F [Example 19, 5′-(7-Ethyl-7H-imidazo[4,5-c]pyridazin-4-yl)-2′,5-difluoro-N-methylbiphenyl-3-carboxamide trifluoroacetate salt] | 14% | 7.29 | 66% | 
CCn1cnc2c(-c3cccc(-c4ccc(C(=O)N(C)C)cc4)c3)cnnc21 [Example 20, 5′-(7-Ethyl-7H-imidazo[4,5-c]pyridazin-4-yl)-N,N-dimethyl-biphenyl-4-carboxamide trifluoroacetate salt] |  | 6.65 |  | 
CCn1cnc2c(-c3ccc(F)c(-c4ccc(C(=O)NC)cc4OC)c3)cnnc21 [Example 21, 5′-(7-Ethyl-7H-imidazo[4,5-c]pyridazin-4-yl)-2′-fluoro-2-methoxy-N-methylbiphenyl-4-carboxamide] | −29% |  | 33% | 8.20
CCn1cnc2c(-c3ccc(F)c(-c4ccc(C(=O)N(C)C)cc4OC)c3)cnnc21 [Example 22, 5′-(7-Ethyl-7H-imidazo[4,5-c]pyridazin-4-yl)-2′-fluoro-2-methoxy-N,N-dimethylbiphenyl-4-carboxamide] | −1% |  | 23% | 7.09
CCn1cnc2c(-c3ccc(F)c(-c4cc(C(=O)N(C)C)ccc4OC)c3)cnnc21 [Example 23, 5′-(7-Ethyl-7H-imidazo[4,5-c]pyridazin-4-yl)-2′-fluoro-6-methoxy-N,N-dimethylbiphenyl-3-carboxamide] |  | 6.47 |  | 
